# Changes are numbered by the printed parent chain.
# Experiments:
# Kv12.1 (Elk1) = molecular target: T1, Kv12.1 (Elk1) (Homo sapiens, UniProt Q96L42); assay: whole-cell patch clamp in transfected CHO cells; format: cell-based
# T1 sequence (Q96L42 1-1107): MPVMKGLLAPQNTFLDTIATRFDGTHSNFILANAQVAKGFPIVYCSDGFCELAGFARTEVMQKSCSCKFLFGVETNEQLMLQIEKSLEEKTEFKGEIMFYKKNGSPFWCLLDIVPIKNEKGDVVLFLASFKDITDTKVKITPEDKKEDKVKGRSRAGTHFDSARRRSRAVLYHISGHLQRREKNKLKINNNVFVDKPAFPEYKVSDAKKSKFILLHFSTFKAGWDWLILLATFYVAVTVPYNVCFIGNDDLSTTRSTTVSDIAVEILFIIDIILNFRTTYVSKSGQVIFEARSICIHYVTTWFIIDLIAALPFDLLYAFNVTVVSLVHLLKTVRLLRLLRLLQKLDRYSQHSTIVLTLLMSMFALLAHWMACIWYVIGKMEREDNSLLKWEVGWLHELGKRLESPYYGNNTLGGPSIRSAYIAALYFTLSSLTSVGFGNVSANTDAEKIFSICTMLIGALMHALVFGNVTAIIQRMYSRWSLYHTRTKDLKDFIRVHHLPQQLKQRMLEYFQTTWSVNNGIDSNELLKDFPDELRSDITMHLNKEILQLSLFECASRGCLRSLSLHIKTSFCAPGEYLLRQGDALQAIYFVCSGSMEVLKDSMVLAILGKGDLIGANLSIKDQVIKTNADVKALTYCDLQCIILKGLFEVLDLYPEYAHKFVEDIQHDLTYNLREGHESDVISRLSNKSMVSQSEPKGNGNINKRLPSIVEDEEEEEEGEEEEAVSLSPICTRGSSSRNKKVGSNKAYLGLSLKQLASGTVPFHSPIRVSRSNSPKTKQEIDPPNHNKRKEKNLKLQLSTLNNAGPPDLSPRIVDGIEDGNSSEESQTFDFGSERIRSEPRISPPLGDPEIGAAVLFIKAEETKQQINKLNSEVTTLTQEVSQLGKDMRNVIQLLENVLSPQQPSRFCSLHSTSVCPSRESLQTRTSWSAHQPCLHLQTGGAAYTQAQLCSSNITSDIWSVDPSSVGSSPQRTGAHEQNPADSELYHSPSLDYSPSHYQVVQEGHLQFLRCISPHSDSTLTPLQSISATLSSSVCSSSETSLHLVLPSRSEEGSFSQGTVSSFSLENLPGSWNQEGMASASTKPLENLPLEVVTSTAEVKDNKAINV
# Kv12.1(H462Y) = molecular target: T2, Kv12.1(H462Y) (Homo sapiens, UniProt Q96L42, H462Y); assay: whole-cell patch clamp in transfected CHO cells; format: cell-based
# T2 sequence (Q96L42 1-1107 H462Y): T1 sequence (Q96L42 1-1107) with H462Y
smiles,measurement,setting,value
C=C[C@H]1C[N@@]2CC[C@H]1C[C@H]2[C@H](O)c1ccnc2ccc(OC)cc12 [quinine],IC50,Kv12.1 (Elk1),970 µM
same,IC50,Kv12.1(H462Y),56 µM

# From article PMC6609544 (British Journal of Pharmacology, 2019)
